# Where two headings read alike, the source gives them in different places.
# Tested on: PABPC1 PABC
# Assay type: binding, human
# Conditions: DMS-BM library, bait PABPC1 PABC, row aa = residue at this position
# [1] = prey ATXN2, TLNPNAKEFNPRSF(averaged) over the two overlapping peptides, N = wild type
# [2] = prey ATXN2, peptide KSTLNPNAKEFNPRSF, N = wild type
# [3] = prey ATXN2, peptide TLNPNAKEFNPRSFSQ, P = wild type
# [4] = prey ATXN2, peptide KSTLNPNAKEFNPRSF, F = wild type
# [5] = prey ATXN2, TLNPNAKEFNPRSF(averaged) over the two overlapping peptides, P = wild type
# [6] = prey ATXN2, peptide KSTLNPNAKEFNPRSF, A = wild type
# [7] = prey ATXN2, peptide KSTLNPNAKEFNPRSF, P = wild type
# [8] = prey ATXN2, peptide TLNPNAKEFNPRSFSQ, K = wild type
# [9] = prey ATXN2, TLNPNAKEFNPRSF(averaged) over the two overlapping peptides, K = wild type
# [10] = prey ATXN2, peptide KSTLNPNAKEFNPRSF, S = wild type
# [11] = prey ATXN2, TLNPNAKEFNPRSF(averaged) over the two overlapping peptides, F = wild type
# [12] = prey ATXN2, peptide TLNPNAKEFNPRSFSQ, N = wild type
# [13] = prey ATXN2, peptide TLNPNAKEFNPRSFSQ, L = wild type
# [14] = prey ATXN2, TLNPNAKEFNPRSF(averaged) over the two overlapping peptides, R = wild type
# [15] = prey ATXN2, peptide TLNPNAKEFNPRSFSQ, F = wild type
# [16] = prey ATXN2, peptide TLNPNAKEFNPRSFSQ, R = wild type
substance,measurement,setting,value
TLNPNAKEFNPRSF(averaged) N5I (TLNPIAKEFNPRSF),"DMS-derived PSSM value (averaged), position N5",[1],0.2839
KSTLNPNAKEFNPRSF N5T (KSTLTPNAKEFNPRSF),"DMS-derived PSSM value, position N5",[2],0
TLNPNAKEFNPRSF(averaged) S13R (TLNPNAKEFNPRRF),"DMS-derived PSSM value (averaged), position S13","prey ATXN2, TLNPNAKEFNPRSF(averaged) over the two overlapping peptides, S = wild type",0.00496
TLNPNAKEFNPRSFSQ P4Q (TLNQNAKEFNPRSFSQ),"DMS-derived PSSM value, position P4",[3],0.03549
KSTLNPNAKEFNPRSF N12A (KSTLNPNAKEFAPRSF),"DMS-derived PSSM value, position N12",[2],0.1266
KSTLNPNAKEFNPRSF F11L (KSTLNPNAKELNPRSF),"DMS-derived PSSM value, position F11",[4],0
TLNPNAKEFNPRSF(averaged) P11E (TLNPNAKEFNERSF),"DMS-derived PSSM value (averaged), position P11",[5],0.00334
KSTLNPNAKEFNPRSF A8Q (KSTLNPNQKEFNPRSF),"DMS-derived PSSM value, position A8",[6],0
KSTLNPNAKEFNPRSF P6D (KSTLNDNAKEFNPRSF),"DMS-derived PSSM value, position P6",[7],0
TLNPNAKEFNPRSFSQ K7W (TLNPNAWEFNPRSFSQ),"DMS-derived PSSM value, position K7",[8],0.03322
TLNPNAKEFNPRSF(averaged) P11N (TLNPNAKEFNNRSF),"DMS-derived PSSM value (averaged), position P11",[5],0.02352
KSTLNPNAKEFNPRSF N12T (KSTLNPNAKEFTPRSF),"DMS-derived PSSM value, position N12",[2],0.02601
TLNPNAKEFNPRSF(averaged) K7I (TLNPNAIEFNPRSF),"DMS-derived PSSM value (averaged), position K7",[9],0.2038
TLNPNAKEFNPRSFSQ P11R (TLNPNAKEFNRRSFSQ),"DMS-derived PSSM value, position P11",[3],0.006355
KSTLNPNAKEFNPRSF S15G (KSTLNPNAKEFNPRGF),"DMS-derived PSSM value, position S15",[10],0
KSTLNPNAKEFNPRSF T3M (KSMLNPNAKEFNPRSF),"DMS-derived PSSM value, position T3","prey ATXN2, peptide KSTLNPNAKEFNPRSF, T = wild type",0.08084
TLNPNAKEFNPRSF(averaged) F14Q (TLNPNAKEFNPRSQ),"DMS-derived PSSM value (averaged), position F14",[11],0.06013
KSTLNPNAKEFNPRSF S2G (KGTLNPNAKEFNPRSF),"DMS-derived PSSM value, position S2",[10],0.02803
TLNPNAKEFNPRSFSQ A6I (TLNPNIKEFNPRSFSQ),"DMS-derived PSSM value, position A6","prey ATXN2, peptide TLNPNAKEFNPRSFSQ, A = wild type",0.03549
TLNPNAKEFNPRSFSQ N5I (TLNPIAKEFNPRSFSQ),"DMS-derived PSSM value, position N5",[12],0.01004
TLNPNAKEFNPRSFSQ P11W (TLNPNAKEFNWRSFSQ),"DMS-derived PSSM value, position P11",[3],0.02291
KSTLNPNAKEFNPRSF K9D (KSTLNPNADEFNPRSF),"DMS-derived PSSM value, position K9","prey ATXN2, peptide KSTLNPNAKEFNPRSF, K = wild type",0.007291
TLNPNAKEFNPRSF(averaged) F9D (TLNPNAKEDNPRSF),"DMS-derived PSSM value (averaged), position F9",[11],0.001318
KSTLNPNAKEFNPRSF N7E (KSTLNPEAKEFNPRSF),"DMS-derived PSSM value, position N7",[2],0.03193
TLNPNAKEFNPRSFSQ N3H (TLHPNAKEFNPRSFSQ),"DMS-derived PSSM value, position N3",[12],0
KSTLNPNAKEFNPRSF R14D (KSTLNPNAKEFNPDSF),"DMS-derived PSSM value, position R14","prey ATXN2, peptide KSTLNPNAKEFNPRSF, R = wild type",0
TLNPNAKEFNPRSF(averaged) K7G (TLNPNAGEFNPRSF),"DMS-derived PSSM value (averaged), position K7",[9],0.008693
TLNPNAKEFNPRSF(averaged) K7R (TLNPNAREFNPRSF),"DMS-derived PSSM value (averaged), position K7",[9],0.01712
TLNPNAKEFNPRSF(averaged) E8W (TLNPNAKWFNPRSF),"DMS-derived PSSM value (averaged), position E8","prey ATXN2, TLNPNAKEFNPRSF(averaged) over the two overlapping peptides, E = wild type",0
KSTLNPNAKEFNPRSF L4R (KSTRNPNAKEFNPRSF),"DMS-derived PSSM value, position L4","prey ATXN2, peptide KSTLNPNAKEFNPRSF, L = wild type",0
TLNPNAKEFNPRSFSQ L2S (TSNPNAKEFNPRSFSQ),"DMS-derived PSSM value, position L2",[13],0
KSTLNPNAKEFNPRSF N5I (KSTLIPNAKEFNPRSF),"DMS-derived PSSM value, position N5",[2],0
TLNPNAKEFNPRSF(averaged) R12I (TLNPNAKEFNPISF),"DMS-derived PSSM value (averaged), position R12",[14],0.04426
TLNPNAKEFNPRSFSQ F14S (TLNPNAKEFNPRSSSQ),"DMS-derived PSSM value, position F14",[15],0.004424
TLNPNAKEFNPRSFSQ R12F (TLNPNAKEFNPFSFSQ),"DMS-derived PSSM value, position R12",[16],0.03143
TLNPNAKEFNPRSFSQ T1Q (QLNPNAKEFNPRSFSQ),"DMS-derived PSSM value, position T1","prey ATXN2, peptide TLNPNAKEFNPRSFSQ, T = wild type",0.00769
TLNPNAKEFNPRSFSQ N10K (TLNPNAKEFKPRSFSQ),"DMS-derived PSSM value, position N10",[12],0.01052
TLNPNAKEFNPRSFSQ L2H (THNPNAKEFNPRSFSQ),"DMS-derived PSSM value, position L2",[13],0
KSTLNPNAKEFNPRSF S2A (KATLNPNAKEFNPRSF),"DMS-derived PSSM value, position S2",[10],0.03999
TLNPNAKEFNPRSF(averaged) R12G (TLNPNAKEFNPGSF),"DMS-derived PSSM value (averaged), position R12",[14],0.06327
TLNPNAKEFNPRSFSQ K7I (TLNPNAIEFNPRSFSQ),"DMS-derived PSSM value, position K7",[8],0.003703
KSTLNPNAKEFNPRSF N5L (KSTLLPNAKEFNPRSF),"DMS-derived PSSM value, position N5",[2],0
TLNPNAKEFNPRSF(averaged) R12W (TLNPNAKEFNPWSF),"DMS-derived PSSM value (averaged), position R12",[14],0.09752
KSTLNPNAKEFNPRSF S15D (KSTLNPNAKEFNPRDF),"DMS-derived PSSM value, position S15",[10],0
TLNPNAKEFNPRSFSQ F9M (TLNPNAKEMNPRSFSQ),"DMS-derived PSSM value, position F9",[15],0
TLNPNAKEFNPRSF(averaged) N3E (TLEPNAKEFNPRSF),"DMS-derived PSSM value (averaged), position N3",[1],0
KSTLNPNAKEFNPRSF N7T (KSTLNPTAKEFNPRSF),"DMS-derived PSSM value, position N7",[2],0.001519
TLNPNAKEFNPRSF(averaged) T1N (NLNPNAKEFNPRSF),"DMS-derived PSSM value (averaged), position T1","prey ATXN2, TLNPNAKEFNPRSF(averaged) over the two overlapping peptides, T = wild type",0.01868
KSTLNPNAKEFNPRSF N12K (KSTLNPNAKEFKPRSF),"DMS-derived PSSM value, position N12",[2],0.009595
KSTLNPNAKEFNPRSF P6V (KSTLNVNAKEFNPRSF),"DMS-derived PSSM value, position P6",[7],0.3743
KSTLNPNAKEFNPRSF F11R (KSTLNPNAKERNPRSF),"DMS-derived PSSM value, position F11",[4],0
KSTLNPNAKEFNPRSF N5D (KSTLDPNAKEFNPRSF),"DMS-derived PSSM value, position N5",[2],0
KSTLNPNAKEFNPRSF S2M (KMTLNPNAKEFNPRSF),"DMS-derived PSSM value, position S2",[10],0.2211
TLNPNAKEFNPRSF(averaged) N5F (TLNPFAKEFNPRSF),"DMS-derived PSSM value (averaged), position N5",[1],0.03844
TLNPNAKEFNPRSF(averaged) R12N (TLNPNAKEFNPNSF),"DMS-derived PSSM value (averaged), position R12",[14],0.02727
TLNPNAKEFNPRSFSQ F14T (TLNPNAKEFNPRSTSQ),"DMS-derived PSSM value, position F14",[15],0.006633
KSTLNPNAKEFNPRSF N7Q (KSTLNPQAKEFNPRSF),"DMS-derived PSSM value, position N7",[2],0.04334
KSTLNPNAKEFNPRSF A8R (KSTLNPNRKEFNPRSF),"DMS-derived PSSM value, position A8",[6],0
TLNPNAKEFNPRSFSQ R12P (TLNPNAKEFNPPSFSQ),"DMS-derived PSSM value, position R12",[16],0.005288
KSTLNPNAKEFNPRSF E10S (KSTLNPNAKSFNPRSF),"DMS-derived PSSM value, position E10","prey ATXN2, peptide KSTLNPNAKEFNPRSF, E = wild type",0
TLNPNAKEFNPRSFSQ L2D (TDNPNAKEFNPRSFSQ),"DMS-derived PSSM value, position L2",[13],0
KSTLNPNAKEFNPRSF P13G (KSTLNPNAKEFNGRSF),"DMS-derived PSSM value, position P13",[7],0.05991
TLNPNAKEFNPRSFSQ S15N (TLNPNAKEFNPRSFNQ),"DMS-derived PSSM value, position S15","prey ATXN2, peptide TLNPNAKEFNPRSFSQ, S = wild type",0.007151
TLNPNAKEFNPRSFSQ R12M (TLNPNAKEFNPMSFSQ),"DMS-derived PSSM value, position R12",[16],0.04074
TLNPNAKEFNPRSF(averaged) F9P (TLNPNAKEPNPRSF),"DMS-derived PSSM value (averaged), position F9",[11],0
TLNPNAKEFNPRSFSQ F14Y (TLNPNAKEFNPRSYSQ),"DMS-derived PSSM value, position F14",[15],0.07249
TLNPNAKEFNPRSFSQ N3R (TLRPNAKEFNPRSFSQ),"DMS-derived PSSM value, position N3",[12],0.02401
KSTLNPNAKEFNPRSF F11H (KSTLNPNAKEHNPRSF),"DMS-derived PSSM value, position F11",[4],0
